US10799505B2, “Crystalline form of (S)-N-(5-((R)-2-(2,5-difluorophenyl)-pyrrolidin-1-yl)-pyrazolo[1,5-A]pyrimidin-3-yl)-3-hydroxypyrrolidine-1-carboxamide hydrogen sulfate” (Array BioPharma, Inc., priority 2014, dated 2020)

Assays:
Assay type in all cases: physicochemical
[1] = Dynamic vapor sorption / humidity exposure (IGAsorp, 25° C.); settings: at 80% RH, hydrogen sulfate
Protocol: • 1. The hygroscopicity was studied at 25° C. using an IGAsorp analyzer. • 2. About 15 mg of sample was placed in a tared mesh sample holder at an initial ambient room humidity setting of ˜35%. • 3. A total wet/dry nitrogen flow rate of 250 cc/min is used throughout the study. • 4. […] The maximum time allowed at any one humidity set point was 120 min. The sample was maintained under dry N2 after the cycle was completed. Percent weight gain was calculated based on the dry weight basis.

[2] = Accelerated stability, open vials in LDPE bag, 40° C./75% RH, five weeks
Protocol: Upon removal from the chamber, the samples were physically characterized by appearance, KF, TGA, DSC, XRD and PLM. The samples were also analyzed by HPLC for chromatographic purity, chiral integrity and potency. Where applicable, the data presented in the stability portion also includes the original T=0 data for comparison purposes. The data can be seen in Tables 25-29 and FIGS. 40-44.

[3] = Bulk and tap densities, Carr's Index, Hausner Ratio
Protocol: The powder was added to a pre-weighed 10 mL graduated cylinder through a funnel that was not in direct contact with the graduated cylinder to avoid transference of vibrations. Powder was added until a 10 mL volume was reached and then the graduated cylinder with powder was weighed. The bulk density was calculated by
[formula] The same sample in the graduated cylinder was tapped for the following sequence: 100, 150, 250, 250 taps. The volume was measured after each interval. The tapped density was calculated by
The Carr's Index was calculated according to the following equation: […]
The Hausner Ratio was calculated with the following equation: […]

Angle of repose = settings: for Angle of Repose θ: one side of the pile; for Angle of Repose φ: other side of the pile
Protocol: The angle of repose is the angle formed by the horizontal base of the surface and the edge of a cone-like pile of granules. It is calculated from the following equation: […]
The angle of repose was measured by slowly pouring approximately 1 g of sample through a funnel with a 3/16″ inner diameter of the outlet. The powder then fell 1 11/16″ to land on the surface of an overturned crystallization dish on which a pile of powder formed. A picture was taken of the pile after addition of all of the material. The angle between the dish surface and the surface of the pile was measure via a protractor on the pictures. Care was taken to replicate the same positions and fall distances in the set up between different samples.

[4] = Dynamic vapor sorption (DVS-1 system); settings: for DVS (outcome): HCl: at 50-60% RH
Protocol: For the DVS measurement a sample of crystalline form (I-HS) was cycled through changing humidity conditions to determine its hygroscopicity. The sample was analyzed using a Surface Measurement System DVS-1 Dynamic Vapor Sorption System. […] Data was collected in 1 minute intervals. Nitrogen was used as the carrier gas. […] After completion of the sorption cycle, the sample was dried using the same procedure, but all the way down to 0% RH and finally taken back to the starting point of 20% RH. The weight change during the sorption/desorption cycles were plotted, allowing for the hygroscopic nature of the sample to be determined.

[5] = Stability on aluminum slide at 40° Celsius/75% RH; settings: I-HS 10 days; HCl after 1 hour; HBr after 2 weeks; mesylate overnight

O=C(Nc1cnn2ccc(N3CCC[C@@H]3c3cc(F)ccc3F)nc12)N1CC[C@H](O)C1.O=S(=O)(O)O [AM(HS)1, (S)—N-(5-((R)-2-(2,5-difluorophenyl)-pyrrolidin-1-yl)-pyrazolo[1,5-a]pyrimidin-3-yl)-3-hydroxypyrrolidine-1-carboxamide hydrogen sulfate]
mass gained in DVS [1]: greater than 13%
Appearance ([2]; 40° C./75% RH, 5 wks): Orange Powder
Assay (HPLC) ([2]; 40° C./75% RH, 5 wks): 80.3%
Chiral Potency (HPLC) ([2]; 40° C./75% RH, 5 wks): 99.6%
KF (water content) ([2]; 40° C./75% RH, 5 wks): 0.56 w/w %
Peak Area Percent, RRT 0.793 ([2]; 40° C./75% RH, 5 wks): 0.00
Peak Area Percent, RRT 0.863 ([2]; 40° C./75% RH, 5 wks): 1.04
Peak Area Percent, RRT 0.981 ([2]; 40° C./75% RH, 5 wks): 0.12
Peak Area Percent, RRT 1.000 ([2]; 40° C./75% RH, 5 wks): 98.83
Peak Area Percent, RRT 1.535 ([2]; 40° C./75% RH, 5 wks): 0.00
Total Impurities (HPLC) ([2]; 40° C./75% RH, 5 wks): 1.16%
change of API chemical purity ([2]; 40° C./75% RH, five weeks): did not change significantly
Appearance ([2]; time point 0 wks): Yellow Powder
Assay (HPLC) ([2]; time point 0 wks): 79.5%
Chiral Potency (HPLC) ([2]; time point 0 wks): 99.6%
KF (water content) ([2]; time point 0 wks): 2.00 w/w %
Peak Area Percent, RRT 0.793 ([2]; time point 0 wks): 0.00
Peak Area Percent, RRT 0.863 ([2]; time point 0 wks): 0.98
Peak Area Percent, RRT 0.981 ([2]; time point 0 wks): 0.12
Peak Area Percent, RRT 1.000 ([2]; time point 0 wks): 98.89
Peak Area Percent, RRT 1.535 ([2]; time point 0 wks): 0.00
Total Impurities (HPLC) ([2]; time point 0 wks): 1.10%

O=C(Nc1cnn2ccc(N3CCC[C@@H]3c3cc(F)ccc3F)nc12)N1CC[C@H](O)C1.O=S(=O)(O)O [AM(HS)2, (S)—N-(5-((R)-2-(2,5-difluorophenyl)-pyrrolidin-1-yl)-pyrazolo[1,5-a]pyrimidin-3-yl)-3-hydroxypyrrolidine-1-carboxamide hydrogen sulfate]
mass gained in DVS [1]: ~12%

O=C(Nc1cnn2ccc(N3CCC[C@@H]3c3cc(F)ccc3F)nc12)N1CC[C@H](O)C1.O=S(=O)(O)O [AR00457470-33]
Bulk Density [3]: 423.6 mg/mL
Tapped Density [3]: 622.9 mg/mL
Angle of Repose Average (Angle of repose): 45.70 °
Angle of Repose θ (Angle of repose): 47.79 °
Angle of Repose φ (Angle of repose): 43.6 °

Br.O=C(Nc1cnn2ccc(N3CCC[C@@H]3c3cc(F)ccc3F)nc12)N1CC[C@H](O)C1 [HBr, (S)—N-(5-((R)-2-(2,5-difluorophenyl)pyrrolidin-1-yl)pyrazolo[1,5-a]pyrimidin-3-yl)-3-hydroxypyrrolidine-1-carboxamide hydrobromide]
DVS (outcome) [4]: (deliquesced)
DVS weight gain ([4]; at 80% RH): ~3.9% gain at 80%
DVS weight gain ([4]; at 90% RH): ~25% gain at 90%
Stability at 40° Celsius/75% RH (aluminum slide) [5]: amorphous

Cl.O=C(Nc1cnn2ccc(N3CCC[C@@H]3c3cc(F)ccc3F)nc12)N1CC[C@H](O)C1 [HCl, (S)—N-(5-((R)-2-(2,5-difluorophenyl)pyrrolidine-1-yl)pyrazolo[1,5-a]pyrimidin-3-yl)-3-hydroxypyrrolidine-1-carboxamide hydrochloride]
DVS (outcome) [4]: form change
DVS weight gain ([4]; at 50% RH): ~1% gain at 50%
Stability at 40° Celsius/75% RH (aluminum slide) [5]: form change

O=C(Nc1cnn2ccc(N3CCC[C@@H]3c3cc(F)ccc3F)nc12)N1CC[C@H](O)C1 [L-ARR10-118]
Bulk Density [3]: 594.8 mg/mL
Tapped Density [3]: 762.6 mg/mL
Angle of Repose Average (Angle of repose): 50.28 °
Angle of Repose θ (Angle of repose): 50.28 °
Angle of Repose φ (Angle of repose): 50.28 °

CS(=O)(=O)O.O=C(Nc1cnn2ccc(N3CCC[C@@H]3c3cc(F)ccc3F)nc12)N1CC[C@H](O)C1 [Mesylate, (S)—N-(5-((R)-2-(2,5-difluorophenyl)pyrrolidin-1-yl)pyrazolo[1,5-a]pyrimidin-3-yl)-3-hydroxypyrrolidine-1-carboxamide methanesulfonate]
DVS (outcome) [4]: (crystalline)
DVS weight gain ([4]; at 80% RH): ~9% gain at 80%
DVS weight gain ([4]; at 90% RH): ~50% gain at 90%
Stability at 40° Celsius/75% RH (aluminum slide) [5]: Deliquesced
